Results: PubChem BioAssay (NCI)
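Dose response: 5 concentrations. Exposure: 48 h. Format: 96-well plates. Endpoint: linear interpolation; highest concentration if not reached. GI50 marks 50% less growth. Definition used: TGI = concentration required for complete inhibition of growth.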

Tests used:
Assay in all cases: growth of human tumour cells (NCI), 48 h
T-47D breast = tested on: T-47D breast
HCC-2998 colon = tested on: HCC-2998 colon
K-562 leukemia = tested on: K-562 leukemia
TK-10 renal = tested on: TK-10 renal
SK-MEL-5 melanoma = tested on: SK-MEL-5 melanoma
OVCAR-5 ovarian = tested on: OVCAR-5 ovarian
NCI-H522 lung = tested on: NCI-H522 lung
HCT-15 colon = tested on: HCT-15 colon
MDA-MB-231 breast = tested on: MDA-MB-231 breast
HT29 colon = tested on: HT29 colon
HCT-116 colon = tested on: HCT-116 colon
RPMI-8226 leukemia = tested on: RPMI-8226 leukemia
HOP-62 NSCLC = tested on: HOP-62 NSCLC
MOLT-4 leukemia = tested on: MOLT-4 leukemia
NCI/ADR-RES ovarian = tested on: NCI/ADR-RES ovarian
NCI-H226 lung = tested on: NCI-H226 lung
EKVX NSCLC = tested on: EKVX NSCLC
A498 renal = tested on: A498 renal
A549 NSCLC = tested on: A549 NSCLC
OVCAR-8 ovarian = tested on: OVCAR-8 ovarian
U251 CNS = tested on: U251 CNS
MDA-MB-435 = tested on: MDA-MB-435
LOX IMVI melanoma = tested on: LOX IMVI melanoma
NCI-H460 lung = tested on: NCI-H460 lung
SR leukemia = tested on: SR leukemia
MCF7 breast = tested on: MCF7 breast
UACC-257 melanoma = tested on: UACC-257 melanoma
SNB-19 CNS = tested on: SNB-19 CNS
SF-295 CNS = tested on: SF-295 CNS
HOP-92 NSCLC = tested on: HOP-92 NSCLC
M14 melanoma = tested on: M14 melanoma
SW-620 colon = tested on: SW-620 colon
SK-MEL-2 melanoma = tested on: SK-MEL-2 melanoma
DU-145 prostate = tested on: DU-145 prostate
NCI-H23 lung = tested on: NCI-H23 lung
786-0 renal = tested on: 786-0 renal
SK-MEL-28 melanoma = tested on: SK-MEL-28 melanoma
KM12 colon = tested on: KM12 colon
SN12C renal = tested on: SN12C renal
COLO 205 colon = tested on: COLO 205 colon
UO-31 renal = tested on: UO-31 renal
IGROV1 ovarian = tested on: IGROV1 ovarian
PC-3 prostate = tested on: PC-3 prostate
OVCAR-3 ovarian = tested on: OVCAR-3 ovarian
SF-539 CNS = tested on: SF-539 CNS
SNB-75 CNS = tested on: SNB-75 CNS
RXF 393 renal = tested on: RXF 393 renal
SF-268 CNS = tested on: SF-268 CNS
CCRF-CEM leukemia = tested on: CCRF-CEM leukemia
ACHN renal = tested on: ACHN renal
BT-549 breast = tested on: BT-549 breast
UACC-62 melanoma = tested on: UACC-62 melanoma
HS 578T breast = tested on: HS 578T breast
HL-60(TB) leukemia = tested on: HL-60(TB) leukemia
OVCAR-4 ovarian = tested on: OVCAR-4 ovarian
MALME-3M melanoma = tested on: MALME-3M melanoma
SK-OV-3 ovarian = tested on: SK-OV-3 ovarian
CAKI-1 renal = tested on: CAKI-1 renal

SMILES: Nc1nc(-c2ccccc2)nc2oc(-c3cccs3)nc12
- TGI (T-47D breast): > 100 µM
- TGI (HCC-2998 colon): > 100 µM
- TGI (K-562 leukemia): > 100 µM
- TGI (TK-10 renal): > 100 µM
- TGI (SK-MEL-5 melanoma): > 100 µM
- TGI (OVCAR-5 ovarian): > 100 µM
- TGI (NCI-H522 lung): > 100 µM
- TGI (HCT-15 colon): > 100 µM
- TGI (MDA-MB-231 breast): > 100 µM
- TGI (HT29 colon): > 100 µM
- TGI (HCT-116 colon): > 100 µM
- TGI (RPMI-8226 leukemia): > 100 µM
- TGI (HOP-62 NSCLC): > 100 µM
- TGI (MOLT-4 leukemia): > 100 µM
- TGI (NCI/ADR-RES ovarian): > 100 µM
- TGI (NCI-H226 lung): > 100 µM
- TGI (EKVX NSCLC): > 100 µM
- TGI (A498 renal): > 100 µM
- TGI (A549 NSCLC): > 100 µM
- TGI (OVCAR-8 ovarian): > 100 µM
- TGI (U251 CNS): > 100 µM
- TGI (MDA-MB-435): > 100 µM
- TGI (LOX IMVI melanoma): > 100 µM
- TGI (NCI-H460 lung): > 100 µM
- TGI (SR leukemia): > 100 µM
- TGI (MCF7 breast): > 100 µM
- TGI (UACC-257 melanoma): > 100 µM
- TGI (SNB-19 CNS): > 100 µM
- TGI (SF-295 CNS): > 100 µM
- TGI (HOP-92 NSCLC): > 100 µM
- TGI (M14 melanoma): > 100 µM
- TGI (SW-620 colon): > 100 µM
- TGI (SK-MEL-2 melanoma): > 100 µM
- TGI (DU-145 prostate): > 100 µM
- TGI (NCI-H23 lung): > 100 µM
- TGI (786-0 renal): > 100 µM
- TGI (SK-MEL-28 melanoma): > 100 µM
- TGI (KM12 colon): > 100 µM
- TGI (SN12C renal): > 100 µM
- TGI (COLO 205 colon): > 100 µM
- TGI (UO-31 renal): > 100 µM
- TGI (IGROV1 ovarian): > 100 µM
- TGI (PC-3 prostate): > 100 µM
- TGI (OVCAR-3 ovarian): > 100 µM
- TGI (SF-539 CNS): > 100 µM
- TGI (SNB-75 CNS): > 100 µM
- TGI (RXF 393 renal): > 100 µM
- TGI (SF-268 CNS): > 100 µM
- TGI (CCRF-CEM leukemia): > 100 µM
- TGI (ACHN renal): > 100 µM
- TGI (BT-549 breast): > 100 µM
- TGI (UACC-62 melanoma): > 100 µM
- TGI (HS 578T breast): > 100 µM
- TGI (HL-60(TB) leukemia): > 100 µM

SMILES: CCCCCCCCCCn1cc[n+](C)c1
- GI50 (T-47D breast): 1.61 µM
- TGI (T-47D breast): > 21.7 µM
- GI50 (HCC-2998 colon): 1.56 µM
- TGI (HCC-2998 colon): 11.2 µM
- GI50 (K-562 leukemia): 0.263 µM
- TGI (K-562 leukemia): 3.67 µM
- GI50 (TK-10 renal): 1.24 µM
- TGI (TK-10 renal): 9.58 µM
- GI50 (SK-MEL-5 melanoma): 1.17 µM
- TGI (SK-MEL-5 melanoma): 2.79 µM
- GI50 (OVCAR-5 ovarian): 2.93 µM
- TGI (OVCAR-5 ovarian): > 100 µM
- GI50 (NCI-H522 lung): 1.86 µM
- TGI (NCI-H522 lung): 10.4 µM
- GI50 (OVCAR-4 ovarian): 1.31 µM
- TGI (OVCAR-4 ovarian): > 61.4 µM
- GI50 (HCT-15 colon): 17.9 µM
- TGI (HCT-15 colon): > 100 µM
- GI50 (MDA-MB-231 breast): 2.73 µM
- TGI (MDA-MB-231 breast): 16.9 µM
- GI50 (HT29 colon): 2.23 µM
- TGI (HT29 colon): 19.2 µM
- GI50 (HCT-116 colon): 1.37 µM
- TGI (HCT-116 colon): > 36.9 µM
- GI50 (RPMI-8226 leukemia): 0.109 µM
- TGI (RPMI-8226 leukemia): 0.448 µM
- GI50 (HOP-62 NSCLC): 3.16 µM
- TGI (HOP-62 NSCLC): 17.5 µM
- GI50 (MOLT-4 leukemia): 2.9 µM
- TGI (MOLT-4 leukemia): 29 µM
- GI50 (NCI/ADR-RES ovarian): 47.4 µM
- TGI (NCI/ADR-RES ovarian): > 100 µM
- GI50 (NCI-H226 lung): 2.43 µM
- TGI (NCI-H226 lung): 47 µM
- GI50 (EKVX NSCLC): 0.536 µM
- TGI (EKVX NSCLC): 11.6 µM
- GI50 (A498 renal): 0.383 µM
- TGI (A498 renal): 9.73 µM
- GI50 (A549 NSCLC): 3.79 µM
- TGI (A549 NSCLC): 22.5 µM
- GI50 (MALME-3M melanoma): 2.26 µM
- TGI (MALME-3M melanoma): 17.6 µM
- GI50 (OVCAR-8 ovarian): 1.67 µM
- TGI (OVCAR-8 ovarian): 15.8 µM
- GI50 (U251 CNS): 1.86 µM
- TGI (U251 CNS): 19.1 µM
- GI50 (MDA-MB-435): 1.4 µM
- TGI (MDA-MB-435): 8.64 µM
- GI50 (LOX IMVI melanoma): 1.79 µM
- TGI (LOX IMVI melanoma): 13.2 µM
- GI50 (NCI-H460 lung): 3.52 µM
- TGI (NCI-H460 lung): 19.2 µM
- GI50 (SR leukemia): 0.163 µM
- TGI (SR leukemia): 4.16 µM
- GI50 (MCF7 breast): 1.69 µM
- TGI (MCF7 breast): 13.6 µM
- GI50 (UACC-257 melanoma): 1.81 µM
- TGI (UACC-257 melanoma): 9.92 µM
- GI50 (SNB-19 CNS): 3.96 µM
- TGI (SNB-19 CNS): 32.9 µM
- GI50 (SF-295 CNS): 1.39 µM
- TGI (SF-295 CNS): 8.43 µM
- GI50 (SK-OV-3 ovarian): 2.62 µM
- TGI (SK-OV-3 ovarian): 20.9 µM
- GI50 (HOP-92 NSCLC): 2.92 µM
- TGI (HOP-92 NSCLC): 22.6 µM
- GI50 (M14 melanoma): 1.9 µM
- TGI (M14 melanoma): 13.5 µM
- GI50 (SW-620 colon): 3.3 µM
- TGI (SW-620 colon): 33 µM
- GI50 (CAKI-1 renal): 1.79 µM
- TGI (CAKI-1 renal): 23.5 µM
- GI50 (DU-145 prostate): 5.25 µM
- TGI (DU-145 prostate): 30.7 µM
- GI50 (NCI-H23 lung): 0.648 µM
- TGI (NCI-H23 lung): 28 µM
- GI50 (786-0 renal): 2.39 µM
- TGI (786-0 renal): 18.1 µM
- GI50 (SK-MEL-28 melanoma): 3.33 µM
- TGI (SK-MEL-28 melanoma): 15.1 µM
- GI50 (KM12 colon): 1.57 µM
- TGI (KM12 colon): 5.75 µM
- GI50 (SN12C renal): 2.54 µM
- TGI (SN12C renal): 9.71 µM
- GI50 (COLO 205 colon): 1.7 µM
- TGI (COLO 205 colon): 7.01 µM
- GI50 (UO-31 renal): 10.3 µM
- TGI (UO-31 renal): 50.7 µM
- GI50 (IGROV1 ovarian): 2.07 µM
- TGI (IGROV1 ovarian): 10.1 µM
- GI50 (PC-3 prostate): 1.03 µM
- TGI (PC-3 prostate): 6.73 µM
- GI50 (OVCAR-3 ovarian): 1.94 µM
- TGI (OVCAR-3 ovarian): 8.59 µM
- GI50 (SF-539 CNS): 2.51 µM
- TGI (SF-539 CNS): 13.5 µM
- GI50 (SNB-75 CNS): 2.69 µM
- TGI (SNB-75 CNS): 11.4 µM
- GI50 (RXF 393 renal): 2.94 µM
- TGI (RXF 393 renal): 14.2 µM
- GI50 (SF-268 CNS): 3.77 µM
- TGI (SF-268 CNS): 18.3 µM
- GI50 (CCRF-CEM leukemia): 0.43 µM
- TGI (CCRF-CEM leukemia): 4.51 µM
- GI50 (ACHN renal): 3.38 µM
- TGI (ACHN renal): > 49.2 µM
- GI50 (BT-549 breast): 1.56 µM
- TGI (BT-549 breast): 8.2 µM
- GI50 (UACC-62 melanoma): 2.53 µM
- TGI (UACC-62 melanoma): 10.6 µM
- GI50 (HS 578T breast): 2.36 µM
- TGI (HS 578T breast): 14 µM
- GI50 (HL-60(TB) leukemia): 0.226 µM
- TGI (HL-60(TB) leukemia): 1.7 µM
